This note sets out measurements from ChEMBL document CHEMBL1208771, “Improvement of both plasmepsin inhibitory activity and antimalarial activity by 2-aminoethylamino substitution” (Bioorg Med Chem Lett, 2010).

For one test, the target named is Plasmepsin II (Plasmodium falciparum, UniProt P46925). Briefly: Inhibition of Plasmodium falciparum plasmepsin-2.
In test [1] the test system is Plasmodium falciparum. Briefly: Antiplasmodial activity against Plasmodium falciparum D6 infected in human erythrocytes by SYBR green I fluorescence assay. It is filed as functional, organism-based.
Test [2] relates to Plasmodium falciparum. In words: Ratio of compound EC50 to chloroquine EC50 for Plasmodium falciparum D6 infected in human erythrocytes. The test is classed as functional.

Sequence of Plasmepsin II (P46925 whole entry): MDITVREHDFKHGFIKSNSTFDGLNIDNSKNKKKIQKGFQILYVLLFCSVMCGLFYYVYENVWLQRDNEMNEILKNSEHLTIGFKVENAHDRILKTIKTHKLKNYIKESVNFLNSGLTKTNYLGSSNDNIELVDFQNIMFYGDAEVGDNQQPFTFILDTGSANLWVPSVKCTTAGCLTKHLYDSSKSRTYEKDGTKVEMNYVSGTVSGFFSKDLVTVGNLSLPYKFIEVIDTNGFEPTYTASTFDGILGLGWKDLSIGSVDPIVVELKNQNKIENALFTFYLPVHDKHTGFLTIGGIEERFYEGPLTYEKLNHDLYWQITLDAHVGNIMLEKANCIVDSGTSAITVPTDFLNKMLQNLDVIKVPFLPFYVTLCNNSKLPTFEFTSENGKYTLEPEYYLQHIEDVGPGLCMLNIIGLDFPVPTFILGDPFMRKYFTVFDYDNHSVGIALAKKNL

On to `Cc1cc(N(C)CCN(C)C)cc(C)c1OCC(=O)N[C@@H](Cc1ccccc1)[C@H](O)C(=O)N1CSC(C)(C)[C@H]1C(=O)N[C@H]1c2ccccc2C[C@H]1O`, for which, at Plasmepsin II, the Ki (commonly a dissociation constant, usually derived from enzyme kinetics or from competition with a known ligand) is less than 0.1 nM. Also, the EC50 (usually the midpoint of the concentration-response curve) in the test with Plasmodium falciparum [1] came to 360 nM.

For `Cc1cc(NCCN)cc(C)c1OCC(=O)N[C@@H](Cc1ccccc1)[C@H](O)C(=O)N1CSC(C)(C)[C@H]1C(=O)N[C@H]1c2ccccc2C[C@H]1O`, on Plasmepsin II, the Ki came out at 6.5 nM. Further, the EC50 in the test with Plasmodium falciparum [1] was found to be 290 nM.

With `CNCCNc1cc(C)c(OCC(=O)N[C@@H](Cc2ccccc2)[C@H](O)C(=O)N2CSC(C)(C)[C@H]2C(=O)N[C@H]2c3ccccc3C[C@H]2O)c(C)c1`, affinity at Plasmepsin II was put at a Ki of 9.1 nM. The same molecule gave an EC50 with Plasmodium falciparum [1] of 1400 nM.

`Cc1cc(NCCN(C)C)cc(C)c1OCC(=O)N[C@@H](Cc1ccccc1)[C@H](O)C(=O)N1CSC(C)(C)[C@H]1C(=O)N[C@H]1c2ccccc2C[C@H]1O` showed a Ki at Plasmepsin II of 17 nM. The same molecule yielded an EC50 in the test on Plasmodium falciparum [1] of 2000 nM.

`Cc1cc(N(C)CCN)cc(C)c1OCC(=O)N[C@@H](Cc1ccccc1)[C@H](O)C(=O)N1CSC(C)(C)[C@H]1C(=O)N[C@H]1c2ccccc2C[C@H]1O` displayed an inhibition constant Ki at Plasmepsin II of 8.5 nM. Besides, in the test on Plasmodium falciparum [1], the response was half-maximal at 1400 nM (EC50).

Molecule `CNCCN(C)c1cc(C)c(OCC(=O)N[C@@H](Cc2ccccc2)[C@H](O)C(=O)N2CSC(C)(C)[C@H]2C(=O)N[C@H]2c3ccccc3C[C@H]2O)c(C)c1` gave a Ki at Plasmepsin II of 1.2 nM. Further, in the test with Plasmodium falciparum [1], the EC50 turned out to be 190 nM. Also, in the test on Plasmodium falciparum [2], the “Ratio EC50” value turned out to be 10.

In the case of `CCNCCNc1cc(C)c(OCC(=O)N[C@@H](Cc2ccccc2)[C@H](O)C(=O)N2CSC(C)(C)[C@H]2C(=O)N[C@H]2c3ccccc3C[C@H]2O)c(C)c1`, the Ki on Plasmepsin II was 0.68 nM. Also, in the test with Plasmodium falciparum [1], the EC50 came out at 220 nM.

Molecule `CCN(CC)CCNc1cc(C)c(OCC(=O)N[C@@H](Cc2ccccc2)[C@H](O)C(=O)N2CSC(C)(C)[C@H]2C(=O)N[C@H]2c3ccccc3C[C@H]2O)c(C)c1` returned a Ki at Plasmepsin II of 5.1 nM. The same molecule came in with an EC50 with Plasmodium falciparum [1] of 1600 nM.

Consider `CCN(CCN)c1cc(C)c(OCC(=O)N[C@@H](Cc2ccccc2)[C@H](O)C(=O)N2CSC(C)(C)[C@H]2C(=O)N[C@H]2c3ccccc3C[C@H]2O)c(C)c1`, for which the Ki on Plasmepsin II was less than 0.1 nM. The molecule further yielded an EC50 in the test with Plasmodium falciparum [1] of 460 nM.

`CCNCCN(CC)c1cc(C)c(OCC(=O)N[C@@H](Cc2ccccc2)[C@H](O)C(=O)N2CSC(C)(C)[C@H]2C(=O)N[C@H]2c3ccccc3C[C@H]2O)c(C)c1` gave a Ki on Plasmepsin II of 4.2 nM. Besides, the 50% effective concentration (EC50) with Plasmodium falciparum [1] turned out to be 790 nM.

`CCN(CC)CCN(CC)c1cc(C)c(OCC(=O)N[C@@H](Cc2ccccc2)[C@H](O)C(=O)N2CSC(C)(C)[C@H]2C(=O)N[C@H]2c3ccccc3C[C@H]2O)c(C)c1` gave a Ki on Plasmepsin II of 10 nM. In the test on Plasmodium falciparum [1], this molecule yielded an EC50 of 1100 nM.

Regarding `Cc1cccc(C)c1OCC(=O)N[C@@H](Cc1ccccc1)[C@H](O)C(=O)N1CSC(C)(C)[C@H]1C(=O)N[C@H]1c2ccccc2C[C@H]1O`, the midpoint of the response with Plasmodium falciparum [1], the EC50, lay at 5000 nM.

In turn, `Cc1cc(NCc2ccccn2)cc(C)c1OCC(=O)N[C@@H](Cc1ccccc1)[C@H](O)C(=O)N1CSC(C)(C)[C@H]1C(=O)N[C@H]1c2ccccc2C[C@H]1O` gave an EC50 with Plasmodium falciparum [1] of 560 nM.

In the case of `CCN(CC)CCCC(C)Nc1ccnc2cc(Cl)ccc12` (stereo unspecified) [CHLOROQUINE], the midpoint of the response with Plasmodium falciparum [1], the EC50, lay at 20 nM.
